pIC50: −log10 of the molar value.
Target: beta-glucosidase (Rattus norvegicus)
Experiment: Inhibition of Beta-glucosidase of rat intestine; no inhibition

SMILES | pIC50
CO[C@@H]1CC2COC(C1O)[C@H]2NC1CC(CO)C(O)C(O)C1O (stereo partly drawn) [4-((3R,8S)-4-Hydroxy-3-methoxy-6-oxa-bicyclo[3.2.1]oct-8-ylamino)-6-hydroxymethyl-cyclohexane-1,2,3-triol] | < 3.00
CCCCCCCCNC1CC(CO)C(O)C(O)C1O (stereo unspecified) [4-Hydroxymethyl-6-octylamino-cyclohexane-1,2,3-triol] | < 3.00
C=C1CC(NCCCCCCCC)C(O)C(O)C1O (stereo unspecified) [4-Methylene-6-octylamino-cyclohexane-1,2,3-triol] | < 3.00

Target: T1, Beta-galactosidase (Bos taurus, UniProt Q58D55)
T1 sequence (Q58D55 whole entry): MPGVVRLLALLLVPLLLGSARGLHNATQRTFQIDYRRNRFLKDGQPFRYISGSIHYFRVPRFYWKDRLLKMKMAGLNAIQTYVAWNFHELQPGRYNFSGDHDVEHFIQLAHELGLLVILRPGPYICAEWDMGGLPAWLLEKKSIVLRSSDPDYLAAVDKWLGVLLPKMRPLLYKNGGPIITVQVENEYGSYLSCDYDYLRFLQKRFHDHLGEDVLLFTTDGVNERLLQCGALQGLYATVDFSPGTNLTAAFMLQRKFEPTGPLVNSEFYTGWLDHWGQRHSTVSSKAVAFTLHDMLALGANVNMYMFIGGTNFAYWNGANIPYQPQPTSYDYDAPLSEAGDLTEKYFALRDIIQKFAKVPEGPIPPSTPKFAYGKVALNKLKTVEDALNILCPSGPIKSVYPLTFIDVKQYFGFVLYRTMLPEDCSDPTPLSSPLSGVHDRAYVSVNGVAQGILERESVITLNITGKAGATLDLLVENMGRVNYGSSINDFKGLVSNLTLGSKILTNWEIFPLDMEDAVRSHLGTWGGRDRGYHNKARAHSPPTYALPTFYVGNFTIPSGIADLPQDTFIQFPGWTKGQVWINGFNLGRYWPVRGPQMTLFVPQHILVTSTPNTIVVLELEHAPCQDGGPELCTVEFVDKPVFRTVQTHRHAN
Experiment: Inhibition of Beta-galactosidase of bovine liver; no inhibition

SMILES | pIC50
N[C@H]1C[C@H](CO)[C@@H](O)[C@H](O)[C@H]1O | < 3.00
CO[C@@H]1CC2COC(C1O)[C@H]2NC1CC(CO)C(O)C(O)C1O (stereo partly drawn) [4-((3R,8S)-4-Hydroxy-3-methoxy-6-oxa-bicyclo[3.2.1]oct-8-ylamino)-6-hydroxymethyl-cyclohexane-1,2,3-triol] | < 3.00
CC(=O)NC1CC(CO)C(O)C(O)C1O (stereo unspecified) [N-(2,3,4-Trihydroxy-5-hydroxymethyl-cyclohexyl)-acetamide] | < 3.00
